Common to all, as to type: cell-based
Data set [1] has as its system LPS-induced B murine splenic lymphocytes. As to the kind of experiment: LPS-induced B-cell proliferation, immunosuppressive assay (CCK-8). Particulars: Mus musculus, Splenic lymphocyte; LPS-induced murine splenic B lymphocytes in vitro, n = 3. The procedure:
(§1) Female BALB/c mice (6–8 weeks old, 20 ± 2 g) were purchased from the Department of Laboratory Animal Science (Hainan Medicinal University, China). The mice were sacrificed by cervical dislocation, and their spleens were collected in complete RPMI 1640 medium, which was minced with surgical scissors in a germ-free condition. The suspension was then filtered through a sterile sieve mesh to obtain the single cell suspension. After centrifugation (1000 rpm at 4 °C for 5 min), the resulting cells were treated with erythrocytes lysis buffer, followed by washing twice with cold phosphate-buffered saline (PBS). Then, the cells were adjusted to the concentration of 5 × 10^6 cells/mL and resuspended in RPMI 1640 medium supplemented with 10% heat-inactivated fetal bovine serum (FBS).
(§2) Compounds 1–8 were evaluated for immunosuppressive activity against the proliferation of concanavalin A (ConA)-induced T and lipopolysaccharide (LPS)-induced B murine splenic lymphocyte in vitro using a CCK-8 method according to previously reported methods. Cyclosporine A was used as a positive control.

The nature of data set [2]: Cell viability (cytotoxicity) CCK-8 assay on murine splenocytes. To be noted: female, BALB/c, mouse, murine splenocytes (spleen lymphocytes), CCK-8 method, mean of n = 3. On the procedure: as §1
Cell viability of compounds 1–8 were measured using the tetrazolium salt-based CCK-8 assay according to a previously described protocol with some modifications. Spleen lymphocytes were seeded into 96-well plates at a density of 2 × 10^6 cells/mL onto 96-well plates containing 100 μL of RPMI1640 complete medium (triplicate wells). Then, the cells were treated with 100 μL of various concentrations (3 μg/mL, 6 μg/mL, 12 μg/mL, 25 μg/mL, 50 μg/mL) of isolated compounds or cyclosporine (CsA) at 37 °C with a 5% CO2 incubator for 44 h. […] The optical density was measured at 450 nm on a microplate reader.

Data set [3] deals with ConA-induced T murine splenic lymphocytes. As to the kind of experiment: ConA-induced T-cell proliferation, immunosuppressive assay (CCK-8). To be noted: Mus musculus, Splenic lymphocyte; ConA-induced murine splenic T lymphocytes in vitro, n = 3. The procedure: as §1, §2

As usually defined, the IC50 is the midpoint of a concentration-inhibition curve. High values mean weaker potency, low ones greater potency. Regarding `COC(=O)c1cc(OC)cc2oc3c(c(=O)c12)COC(C)(O)C3` (stereo not drawn) [Compound 5, Diaporchromone A], the IC50 is 117 µM in data set [1] and 34 µM in data set [3]. Also, the half-maximal inhibitory concentration (IC50) at 44 h in data set [2] is 47 µM.
